Patent US5658500A, “Substituted naphthopyrans” (Transitions Optical, Inc., priority 1995, dated 1997)

Columns and labels:
[1] = lambda max of the activated (colored) form in the visible spectrum; type: physicochemical; parameters: unit not given here; settings: wavelength of maximum absorption of the activated form, in a diethylene glycol bis(allyl carbonate) composition
Protocol: (§1) Testing was done with the photochromic naphthopyrans of the Examples incorporated or imbibed into test square polymerizates by one of two different methods. In Method I, the photochromic naphthopyrans of the Examples were incorporated into polymeric samples. The quantity of naphthopyran calculated to yield a 1.5 times 10^-3 molal solution was added to a flask containing 50 grams of a monomer blend of 4 parts ethoxylated bisphenol A dimethacrylate (BPA 2EO DMA), 1 part poly(ethyleneglycol) 600 dimethacrylate, and 0,033 weight percent 2,2'-azobis(2-methyl propionitrile) (AIBN). The naphthopyrans were dissolved into the monomer blend by stirring and gentle heating, if necessary. After a clear solution was obtained, it was poured into a flat sheet mold having the interior dimensions of 2.2 mm×6 inches (15.24 cm)×6 inches (15.24 cm). The mold was sealed and placed in a horizontal air flow, programmable oven set to increase the temperature from 40° C. to 95° C. over a 5 hour interval, hold the temperature at 95° C. for 3 hours and then lower it to 60° C. for at least 2 hours before the end of the curing cycle. After the molds were opened, the polymer sheets were cut using a diamond blade saw into 2 inch (5.1 centimeters) test squares.
(§2) In Method II, the photochromic naphthopyran was imbibed into test square polymerizates prepared from a diethylene glycol bis(allyl carbonate) composition. The test squares measured 1/8 inch (0.3 centimeters)×2 inches (5.1 centimeters)×2 inches (5.1 centimeters). In the imbibition process, the photochromic naphthopyran was dissolved to form a 10 weight percent solution in a 1:9 mixture of ethyl cellulose:toluene. The solution was then spin coated onto the test squares and allowed to dry. Samples were then heated in a hot-air oven at 135°-155°C. for a period of time sufficient to thermally transfer the photochromic into the test squares. […] After cooling, the ethyl cellulose/toluene resin film was removed from the test squares by washing with acetone.
(§3) The ΔOD/Min, which represents the sensitivity of the photochromic compound's response to UV light, was measured over the first five (5) seconds of UV exposure, then expressed on a per minute basis. The saturation optical density (OD) was taken under identical conditions as the ΔOD/Min, except UV exposure was continued for 20 minutes for the examples in Table 1. The lambda max reported in Table 1 is the wavelength in the visible spectrum at which the maximum absorption of the activated (colored) form of the photochromic compound in a diethylene glycol bis(allyl carbonate) composition occurs. The Bleach Rate (T 1/2) is the time interval in seconds for the absorbance of the activated form of the naphthopyran in the test squares to reach one half the highest absorbance at room temperature (75° F., 23.9° C.) after removal of the source of activating light.

[2] = photochromic response of test squares on an optical bench (sensitivity, saturation optical density, bleach rate); type: physicochemical; settings: for ΔOD @ SATURATION: UV exposure 20 minutes; for ΔOD @ SATURATION / ΔOD/MIN SENSITIVITY: 75° F. (23.9° C.); for ΔOD/MIN SENSITIVITY: first five seconds of UV exposure, expressed per minute; for Bleach Rate (T1/2): room temperature (75° F., 23.9° C.) after removal of activating light
Protocol: as §1
as §2, with “dry.” for “dry. Samples were then heated in a hot-air oven at 135°-155°C. for a period of time sufficient to thermally transfer the photochromic into the test squares.”
The photochromic test squares were tested for photochromic response rates on an optical bench. […] The bench was fitted with a 150 watt Xenon arc lamp, a remote controlled shutter, a copper sulfate bath acting as a heat sink for the arc lamp, a Schott WG-320 nm cut-off filter which removes short wavelength radiation; neutral density filter(s) and a sample holder in which the square to be tested was inserted. A collimated beam of light from a tungsten lamp was passed through the square at a small angle normal to the square. After passing through the square, the light from the tungsten lamp was directed through a photopic filter attached to a detector. The photopic filter passes wavelengths such that the detector mimics the response of the human eye. The output signals from the detector(s) were processed by a radiometer.
Change in optical density (ΔOD) was determined by inserting a test square in the bleached state into the sample holder, adjusting the transmittance scale to 100%, opening the shutter from the Xenon lamp to provide ultraviolet radiation to change the test square from the bleached state to an activated (i.e., darkened) state, measuring the transmittance in the activated state, and calculating the change in optical density according to the formula ΔOD=log(100/%Ta) where %Ta is the percent transmittance in the activated state and the logarithm is to the base 10.
as §3, with “occurs.” for “occurs. The Bleach Rate (T 1/2) is the time interval in seconds for the absorbance of the activated form of the naphthopyran in the test squares to reach one half the highest absorbance at room temperature (75° F., 23.9° C.) after removal of the source of activating light.”

[3] = Method II (imbibed) test square

Structure (SMILES)	LAMBDA MAX (VISIBLE) [1]	ΔOD @ SATURATION ([2]; Method I test square)	ΔOD/MIN SENSITIVITY ([2]; Method I test square)	Bleach Rate (T1/2) ([2]; Method I test square)	ΔOD @ SATURATION [2, 3]	ΔOD/MIN SENSITIVITY [2, 3]	Bleach Rate (T1/2) [2, 3]
COC(=O)c1c2c(c3ccccc3c1OC(C)=O)OC(c1ccccc1)(c1ccc(N3CCOCC3)cc1)C=C2 (centres unmarked) [Example 3, 2-(4-morpholinophenyl)-2-phenyl-5-methoxycarbonyl-6-acetoxy-2H-naphtho[1,2-b]pyran]	545	0.31	0.24 ΔOD/MIN	1.47 min	–	–	–
CCn1c2ccccc2c2ccc(C3(c4ccccc4)C=Cc4c(C(=O)OC)c(OC(C)=O)c5ccccc5c4O3)cc21 (centres unmarked) [Example 4, 2-(9-ethylcarbazol-2-yl)-2-phenyl-5-methoxycarbonyl-6-acetoxy-2H-naphtho[1,2-b]pyran]	528	–	–	–	0.46	0.67 ΔOD/MIN	4.5 min
COC(=O)c1c2c(c3ccccc3c1OC(C)=O)OC(c1ccc(N(C)C)cc1)(c1ccc(N(C)C)cc1)C=C2 [Example 8, 2,2-bis (4-dimethylaminophenyl)-5-methoxycarbonyl-6-acetoxy-2H-naphtho[1,2-b]pyran]	618	0.07	0.16 ΔOD/MIN	0.317 min	–	–	–
COC(=O)c1c2c(c3ccccc3c1OC(C)=O)OC(c1ccccc1)(c1ccc(N(C)C)cc1)C=C2 (centres unmarked) [Example 6, 2-(4-dimethylaminophenyl)-2-phenyl-5-methoxycarbonyl-6-acetoxy-2H-naphtho[1,2-b]pyran]	591	0.30	0.27 ΔOD/MIN	1.17 min	–	–	–
COC(=O)c1c2c(c3ccccc3c1OC(C)=O)OC(c1ccccc1)(c1ccc3c4ccccc4n(-c4ccccc4)c3c1)C=C2 (centres unmarked) [Example 5, 2-(9-phenylcarbazol-2-yl)-2-phenyl-5-methoxycarbonyl-6-acetoxy-2H-naphtho[1,2-b]pyran]	520	0.88	0.31 ΔOD/MIN	1.17 min	–	–	–
COC(=O)c1c2c(c3ccccc3c1OC)OC(c1ccccc1)(c1ccc(N3CCOCC3)cc1)C=C2 (centres unmarked) [Example 2, 2-(4-morpholinophenyl)-2-phenyl-5-methoxycarbonyl-6-methoxy-2H-naphtho[1,2-b]pyran]	541	0.95	0.29 ΔOD/MIN	4.87 min	–	–	–
COC(=O)c1c2c(c3ccccc3c1O)OC(c1ccccc1)(c1ccc(N3CCOCC3)cc1)C=C2 (centres unmarked) [Example 1, 2-(4-morpholinophenyl)-2-phenyl-5-methoxycarbonyl-6-hydroxy-2H-naphtho[1,2-b]pyran]	511	1.36	0.64 ΔOD/MIN	3.22 min	–	–	–
COC(=O)c1c2c(c3ccccc3c1C)OC(c1ccccc1)(c1ccc(N(C)C)cc1)C=C2 (centres unmarked) [Example 7, 2-(4-dimethylaminophenyl)-2-phenyl-5-methoxycarbonyl-6-methyl-2H-naphtho[1,2-b]pyran]	584	0.51	0.20 ΔOD/MIN	3.33 min	–	–	–
